Measured values published in patent publication US8410282B2, “Compounds as adenosine A1 receptor antagonists” (Palobiofarma, S.L., priority 2007, dated 2013).

Columns and labels:
hA2a receptors = molecular target: T1, hA2a receptors (Homo sapiens, UniProt P29274); test: Adenosine receptor subtype competition radioligand binding assay, hA2a; conditions: membranes from hA2a receptors transfected to HEK293 cells, [3H]ZM241385 as radioligand, 90 min at 25° C.; read-out: A2a Antagonism (Ki nM)
T1 construct: purchased Receptor Biology, Inc. (USA); host or cells: HEK293 cells
T1 sequence (P29274 whole entry): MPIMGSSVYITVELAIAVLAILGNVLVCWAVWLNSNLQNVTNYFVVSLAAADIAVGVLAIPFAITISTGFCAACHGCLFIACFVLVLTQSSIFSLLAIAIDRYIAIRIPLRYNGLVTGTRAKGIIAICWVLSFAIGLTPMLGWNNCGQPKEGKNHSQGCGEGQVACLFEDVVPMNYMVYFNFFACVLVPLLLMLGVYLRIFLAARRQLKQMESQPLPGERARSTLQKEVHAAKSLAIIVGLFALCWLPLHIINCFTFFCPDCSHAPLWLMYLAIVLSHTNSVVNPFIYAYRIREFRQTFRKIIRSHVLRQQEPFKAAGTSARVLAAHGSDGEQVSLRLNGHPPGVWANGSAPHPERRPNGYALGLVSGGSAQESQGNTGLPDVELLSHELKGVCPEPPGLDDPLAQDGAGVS
Experimental: (§1) Pharmacological Activity Adenosine Receptor Subtype Competition Radioligand Binding Assay
(§2) Human membranes from recombinant adenosine receptors were purchased from Receptor Biology, Inc. (USA)
Competition assays were carried out by incubation of membranes from hA2a receptors transfected to HEK293 cells, [^3H]ZM241385 as radioligand, buffer (50 mM Tris-HCl (pH=7.4), 10 mM MgCl2, 1 mM […], 2 units/ml adenosine deaminase), and unlabelled ligand in a total volume of 0.2 ml for 90 min at 25° C. NECA was used to determinate non-specific binding. Filter over Schleicher & Schuell GF/52 filters (pre-soaked 0.5% polyethylenimine) in a Brandel cell harvester. Unbound radioligand was removed with 3×3 ml ice-cold 50 mM Tris-HCl (pH=7.4), 0.9% NaCl.

hA1 receptors = molecular target: T2, hA1 receptors (Homo sapiens, UniProt P30542); test: Adenosine receptor subtype competition radioligand binding assay, hA1; conditions: membranes from hA1 receptors transfected to CHO cells, [3H]-DPCPX as radioligand, 90 min at 25° C.; read-out: A1 Antagonism (Ki nM)
T2 construct: purchased Receptor Biology, Inc. (USA); host or cells: CHO cells
T2 sequence (P30542 1-326): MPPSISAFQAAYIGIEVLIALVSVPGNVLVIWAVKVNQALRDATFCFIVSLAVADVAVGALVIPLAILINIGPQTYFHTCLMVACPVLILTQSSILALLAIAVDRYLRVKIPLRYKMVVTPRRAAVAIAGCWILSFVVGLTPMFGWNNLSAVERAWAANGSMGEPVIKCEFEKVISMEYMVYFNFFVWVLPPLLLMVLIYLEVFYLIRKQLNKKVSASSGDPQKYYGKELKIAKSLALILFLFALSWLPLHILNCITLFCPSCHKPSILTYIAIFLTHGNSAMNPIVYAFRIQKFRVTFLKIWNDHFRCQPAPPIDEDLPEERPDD
Experimental: as §1, §2
Competition assays were carried out by incubation of membranes from hA1 receptors transfected to CHO cells, [^3H]-DPCPX as radioligand, buffer (HEPES 20 mM (pH=7.4), 10 mM MgCl2, 100 mM NaCl, 2 units/ml adenosine deaminase), and unlabelled ligand in a total volume of 0.2 ml for 90 min at 25° C. R-PIA was used to determinate non-specific binding. Filter over Schleicher & Schuell GF/52 filters (pre-soaked 0.5% polyethylenimine) in a Brandel cell harvester. Unbound radioligand was removed with HEPES 30 mM (3×250 μl), NaCl (100 mM) and MgCl2 (10 mM).

| Ki (hA2a receptors) [nM] | Ki (hA1 receptors) [nM] | SMILES |
| --- | --- | --- |
| > 1200 | 17 | N#Cc1sc(NC(=O)[C@@H]2CCC[C@H](C(=O)O)C2)nc1-c1ccccc1 (relative stereo) [Example 8, Cis-3-(5-cyano-4-phenyl-1,3-thiazol-2-ylcarbamoyl)cyclohexane Carboxylic Acid] |
| 1840 | 14 | N#Cc1sc(NC(=O)[C@@H]2CCC[C@H](C(=O)O)C2)nc1-c1cccc(F)c1 (relative stereo) [Example 75, Cis-3-[5-cyano-4-(3-fluorophenyl)-1,3-thiazol-2-ylcarbamoyl]cyclohexanecarboxylic Acid] |
| 776 | 6 | N#Cc1sc(NC(=O)[C@H]2CC[C@@H](C(=O)O)CC2)nc1-c1cccc(F)c1 [Example 77, Cis-4-[5-cyano-4-(3-fluorophenyl)-1,3-thiazol-2-ylcarbamoyl]cyclohexanecarboxylic Acid] |
| > 10000 | 43 | CC(C)(CCC(=O)O)C(=O)Nc1nc(-c2ccccc2)c(C#N)s1 [Example 2, 4-(5-cyano-4-phenyl-1,3-thiazol-2-ylcarbamoyl)-4-methylpentanoic Acid] |
| 1080 | 7 | N#Cc1sc(NC(=O)[C@H]2CC[C@@H](C(=O)O)CC2)nc1-c1ccccc1 [Example 10, Cis-4-(5-cyano-4-phenyl-1,3-thiazol-2-ylcarbamoyl)cyclohexane Carboxylic Acid] |
| 940 | 6.4 | N#Cc1sc(NC(=O)C2CCC(C(=O)O)C2)nc1-c1ccccc1 (stereo not shown) [Example 5, 3-(5-cyano-4-phenyl-1,3-thiazol-2-ylcarbamoyl)cyclopentane Carboxylic Acid] |
| 487 | 25 | N#Cc1sc(NC(=O)[C@H]2CC[C@H](C(=O)O)CC2)nc1-c1cccc(Cl)c1 [Example 36, trans-4-[4-(3-chlorophenyl)-5-cyano-1,3-thiazol-2-ylcarbamoyl]cyclohexanecarboxylic Acid] |
| > 1300 | 16 | N#Cc1sc(NC(=O)[C@@H]2CC[C@H](C(=O)O)C2)nc1-c1ccccc1F (relative stereo) [Example 50, Cis-3-[5-cyano-4-(2-fluorophenyl)-1,3-thiazol-2-ylcarbamoyl]cyclopentanecarboxylic Acid] |
| > 4000 | 51 | CC(C)(CCC(=O)O)C(=O)Nc1nc(-c2cccc(F)c2)c(C#N)s1 [Example 68, 4-[5-cyano-4-(3-fluorophenyl)-1,3-thiazol-2-ylcarbamoyl]-4-methylpentanoic Acid] |
| > 10000 | 32 | N#Cc1sc(NC(=O)[C@@H]2CCC[C@H](C(=O)O)C2)nc1-c1cc(F)cc(F)c1 (relative stereo) [Example 114, Cis-3-[5-cyano-4-(3,5-difluorophenyl)-1,3-thiazol-2-ylcarbamoyl]cyclohexanecarboxylic Acid] |
| 3670 | 31 | N#Cc1sc(NC(=O)[C@@H]2CCC[C@H](C(=O)O)C2)nc1-c1ccccc1Cl (relative stereo) [Example 26, Cis-3-[4-(2-chlorophenyl)-5-cyano-1,3-thiazol-2-ylcarbamoyl]cyclohexanecarboxylic Acid] |
